Results published in publication PMC10046369, “Low-Affinity/High-Selectivity Dopamine Transport Inhibition Sufficient to Rescue Cognitive Functions in the Aging Rat” (Biomolecules, 2023).

How the values were obtained:
FPR1 = FPR1 (Homo sapiens, UniProt P21462); assay: cell-based; set-up: Eurofins Cerep functional GPCR screen, antagonist mode, inhibition of control agonist response; conditions: read-out: % Inhibition of Control Agonist Response, Mean
GIP = biological target: T1, GIP (Homo sapiens, UniProt P48546); assay: cell-based; set-up: Eurofins Cerep functional GPCR screen, antagonist mode, inhibition of control agonist response; conditions: read-out: % Inhibition of Control Agonist Response, Mean
T1 construct: gene GIPR

OXGR1 GPR99 = OXGR1 GPR99 (Homo sapiens, UniProt Q96P68); assay: cell-based; set-up: Eurofins Cerep functional GPCR screen, antagonist mode, inhibition of control agonist response; conditions: read-out: % Inhibition of Control Agonist Response, Mean
D5 = biological target: T2, D5 (Homo sapiens, UniProt P21918); assay: cell-based; set-up: Eurofins Cerep functional GPCR screen, antagonist mode, inhibition of control agonist response; conditions: read-out: % Inhibition of Control Agonist Response, Mean
T2 construct: gene DRD5
T2 sequence (P21918 whole entry): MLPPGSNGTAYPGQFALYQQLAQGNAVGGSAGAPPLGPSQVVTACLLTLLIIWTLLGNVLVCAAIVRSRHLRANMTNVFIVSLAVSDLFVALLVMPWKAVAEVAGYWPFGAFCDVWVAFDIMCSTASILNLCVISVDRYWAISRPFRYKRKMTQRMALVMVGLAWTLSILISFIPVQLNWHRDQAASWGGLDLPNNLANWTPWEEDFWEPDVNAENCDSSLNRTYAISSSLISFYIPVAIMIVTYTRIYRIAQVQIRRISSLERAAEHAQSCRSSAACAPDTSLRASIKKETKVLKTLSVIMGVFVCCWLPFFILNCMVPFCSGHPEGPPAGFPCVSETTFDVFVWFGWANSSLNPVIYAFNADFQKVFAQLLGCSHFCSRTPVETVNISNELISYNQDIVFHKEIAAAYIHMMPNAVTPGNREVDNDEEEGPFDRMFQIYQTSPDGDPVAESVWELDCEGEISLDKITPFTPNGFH

BB2 = biological target: T3, BB2 (Homo sapiens, UniProt P30550); assay: cell-based; set-up: Eurofins Cerep functional GPCR screen, antagonist mode, inhibition of control agonist response; conditions: read-out: % Inhibition of Control Agonist Response, Mean
T3 construct: gene GRPR
T3 sequence (P30550 whole entry): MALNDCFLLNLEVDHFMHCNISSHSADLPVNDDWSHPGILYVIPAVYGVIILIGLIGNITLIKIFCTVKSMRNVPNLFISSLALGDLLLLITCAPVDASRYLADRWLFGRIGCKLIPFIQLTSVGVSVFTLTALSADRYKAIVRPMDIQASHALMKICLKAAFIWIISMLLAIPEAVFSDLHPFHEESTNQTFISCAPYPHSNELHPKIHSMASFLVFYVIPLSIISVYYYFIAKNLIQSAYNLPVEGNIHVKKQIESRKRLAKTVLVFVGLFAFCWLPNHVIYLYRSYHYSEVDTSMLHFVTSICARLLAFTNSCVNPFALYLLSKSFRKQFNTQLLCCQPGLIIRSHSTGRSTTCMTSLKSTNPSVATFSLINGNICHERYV

CCK2 (CCKB) = biological target: T4, CCK2 (CCKB) (Homo sapiens, UniProt P32239); assay: cell-based; set-up: Eurofins Cerep functional GPCR screen, antagonist mode, inhibition of control agonist response; conditions: read-out: % Inhibition of Control Agonist Response, Mean
T4 construct: gene CCKBR

C3aR = biological target: T5, C3aR (Homo sapiens, UniProt Q16581); assay: cell-based; set-up: Eurofins Cerep functional GPCR screen, antagonist mode, inhibition of control agonist response; conditions: read-out: % Inhibition of Control Agonist Response, Mean
T5 construct: gene C3AR1
T5 sequence (Q16581 whole entry): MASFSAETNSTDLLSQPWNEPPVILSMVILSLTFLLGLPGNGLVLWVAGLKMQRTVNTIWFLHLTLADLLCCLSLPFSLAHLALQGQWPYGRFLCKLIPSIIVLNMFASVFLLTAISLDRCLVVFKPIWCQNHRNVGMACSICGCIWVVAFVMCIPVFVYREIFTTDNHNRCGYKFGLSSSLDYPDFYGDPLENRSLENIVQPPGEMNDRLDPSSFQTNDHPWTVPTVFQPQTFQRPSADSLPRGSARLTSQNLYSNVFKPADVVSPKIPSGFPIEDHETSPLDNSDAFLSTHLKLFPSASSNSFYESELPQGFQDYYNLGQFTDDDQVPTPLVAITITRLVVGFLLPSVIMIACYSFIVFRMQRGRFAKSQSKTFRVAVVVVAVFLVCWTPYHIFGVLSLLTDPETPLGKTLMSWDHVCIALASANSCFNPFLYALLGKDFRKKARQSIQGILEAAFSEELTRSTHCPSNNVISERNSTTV

GAL2 = biological target: T6, GAL2 (Homo sapiens, UniProt O43603); assay: cell-based; set-up: Eurofins Cerep functional GPCR screen, antagonist mode, inhibition of control agonist response; conditions: read-out: % Inhibition of Control Agonist Response, Mean
T6 construct: gene GALR2
T6 sequence (O43603 whole entry): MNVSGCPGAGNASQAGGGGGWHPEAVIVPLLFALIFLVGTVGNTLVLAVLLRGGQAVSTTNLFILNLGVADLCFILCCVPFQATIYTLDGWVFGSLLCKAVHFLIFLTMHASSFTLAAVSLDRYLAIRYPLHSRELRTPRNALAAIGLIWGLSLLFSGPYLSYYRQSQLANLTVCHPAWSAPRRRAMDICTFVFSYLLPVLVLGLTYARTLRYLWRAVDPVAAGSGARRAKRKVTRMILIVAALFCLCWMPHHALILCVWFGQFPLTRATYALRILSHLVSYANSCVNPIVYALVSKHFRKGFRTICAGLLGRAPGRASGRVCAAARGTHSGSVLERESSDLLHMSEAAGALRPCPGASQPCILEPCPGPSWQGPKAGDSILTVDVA

GABAB1b beta = biological target: T7, GABAB1b beta (Homo sapiens, UniProt Q9UBS5); assay: cell-based; set-up: Eurofins Cerep functional GPCR screen, antagonist mode, inhibition of control agonist response; conditions: read-out: % Inhibition of Control Agonist Response, Mean
T7 construct: gene GABBR1; GABAB1b isoform

α1B = biological target: T8, α1B (Homo sapiens, UniProt P35368); assay: cell-based; set-up: Eurofins Cerep functional GPCR screen, antagonist mode, inhibition of control agonist response; conditions: read-out: % Inhibition of Control Agonist Response, Mean
T8 construct: gene ADRA1B
T8 sequence (P35368 whole entry): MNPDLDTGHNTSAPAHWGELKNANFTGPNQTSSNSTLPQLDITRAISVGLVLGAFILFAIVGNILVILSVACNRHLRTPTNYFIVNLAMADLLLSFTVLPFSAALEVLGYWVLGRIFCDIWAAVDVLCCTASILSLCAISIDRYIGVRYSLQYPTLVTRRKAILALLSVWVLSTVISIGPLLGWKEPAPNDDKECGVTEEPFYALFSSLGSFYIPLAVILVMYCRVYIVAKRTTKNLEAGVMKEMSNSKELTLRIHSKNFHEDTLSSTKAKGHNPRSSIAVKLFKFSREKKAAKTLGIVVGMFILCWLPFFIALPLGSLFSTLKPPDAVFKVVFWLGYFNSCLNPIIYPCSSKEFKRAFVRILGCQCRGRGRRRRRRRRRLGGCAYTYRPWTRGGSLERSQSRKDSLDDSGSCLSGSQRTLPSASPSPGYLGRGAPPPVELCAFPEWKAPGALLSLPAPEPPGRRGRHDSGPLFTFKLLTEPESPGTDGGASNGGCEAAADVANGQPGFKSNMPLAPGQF

CXCR3 = CXCR3 (Homo sapiens, UniProt P49682); assay: cell-based; set-up: Eurofins Cerep functional GPCR screen, antagonist mode, inhibition of control agonist response; conditions: read-out: % Inhibition of Control Agonist Response, Mean
Sequence of CXCR3 (P49682 whole entry): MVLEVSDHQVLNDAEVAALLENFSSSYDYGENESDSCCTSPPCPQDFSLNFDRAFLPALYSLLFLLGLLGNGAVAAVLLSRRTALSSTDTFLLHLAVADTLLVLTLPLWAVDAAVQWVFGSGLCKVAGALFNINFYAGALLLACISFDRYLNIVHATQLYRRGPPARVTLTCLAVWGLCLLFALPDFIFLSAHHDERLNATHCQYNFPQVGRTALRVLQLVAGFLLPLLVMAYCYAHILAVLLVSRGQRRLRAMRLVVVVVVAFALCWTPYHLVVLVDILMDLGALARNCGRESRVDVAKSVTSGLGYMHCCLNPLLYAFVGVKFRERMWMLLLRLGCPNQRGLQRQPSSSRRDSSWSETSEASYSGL

CCR10 = CCR10 (Homo sapiens, UniProt P46092); assay: cell-based; set-up: Eurofins Cerep functional GPCR screen, antagonist mode, inhibition of control agonist response; conditions: read-out: % Inhibition of Control Agonist Response, Mean
CCR2 = CCR2 (Homo sapiens, UniProt P41597); assay: cell-based; set-up: Eurofins Cerep functional GPCR screen, antagonist mode, inhibition of control agonist response; conditions: read-out: % Inhibition of Control Agonist Response, Mean
APJ (apelin) = biological target: T9, APJ (apelin) (Homo sapiens, UniProt P35414); assay: cell-based; set-up: Eurofins Cerep functional GPCR screen, antagonist mode, inhibition of control agonist response; conditions: read-out: % Inhibition of Control Agonist Response, Mean
T9 construct: gene APLNR

ETB = biological target: T10, ETB (Homo sapiens, UniProt P24530); assay: cell-based; set-up: Eurofins Cerep functional GPCR screen, antagonist mode, inhibition of control agonist response; conditions: read-out: % Inhibition of Control Agonist Response, Mean
T10 construct: gene EDNRB

D1 = biological target: T11, D1 (Homo sapiens, UniProt P21728); assay: cell-based; set-up: Eurofins Cerep functional GPCR screen, antagonist mode, inhibition of control agonist response; conditions: read-out: % Inhibition of Control Agonist Response, Mean
T11 construct: gene DRD1

TGR5 = biological target: T12, TGR5 (Homo sapiens, UniProt Q8TDU6); assay: cell-based; set-up: Eurofins Cerep functional GPCR screen, antagonist mode, inhibition of control agonist response; conditions: read-out: % Inhibition of Control Agonist Response, Mean
T12 construct: gene GPBAR1

CRF1 = biological target: T13, CRF1 (Homo sapiens, UniProt P34998); assay: cell-based; set-up: Eurofins Cerep functional GPCR screen, antagonist mode, inhibition of control agonist response; conditions: read-out: % Inhibition of Control Agonist Response, Mean
T13 construct: gene CRHR1
T13 sequence (P34998 whole entry): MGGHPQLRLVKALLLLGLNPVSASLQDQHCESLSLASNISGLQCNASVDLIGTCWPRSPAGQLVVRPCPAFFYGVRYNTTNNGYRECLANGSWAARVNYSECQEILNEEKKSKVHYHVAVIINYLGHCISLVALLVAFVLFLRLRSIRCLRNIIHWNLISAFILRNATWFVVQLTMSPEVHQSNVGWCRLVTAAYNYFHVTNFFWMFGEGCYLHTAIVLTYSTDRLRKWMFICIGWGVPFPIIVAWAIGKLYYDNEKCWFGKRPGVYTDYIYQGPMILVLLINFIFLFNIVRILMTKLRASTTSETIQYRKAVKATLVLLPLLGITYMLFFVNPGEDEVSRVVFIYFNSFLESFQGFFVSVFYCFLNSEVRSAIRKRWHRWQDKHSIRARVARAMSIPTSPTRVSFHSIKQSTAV

H4 = biological target: T14, H4 (Homo sapiens, UniProt Q9H3N8); assay: cell-based; set-up: Eurofins Cerep functional GPCR screen, antagonist mode, inhibition of control agonist response; conditions: read-out: % Inhibition of Control Agonist Response, Mean
T14 construct: gene HRH4

FFA2 = biological target: T15, FFA2 (Homo sapiens, UniProt O15552); assay: cell-based; set-up: Eurofins Cerep functional GPCR screen, antagonist mode, inhibition of control agonist response; conditions: read-out: % Inhibition of Control Agonist Response, Mean
T15 construct: gene FFAR2
T15 sequence (O15552 whole entry): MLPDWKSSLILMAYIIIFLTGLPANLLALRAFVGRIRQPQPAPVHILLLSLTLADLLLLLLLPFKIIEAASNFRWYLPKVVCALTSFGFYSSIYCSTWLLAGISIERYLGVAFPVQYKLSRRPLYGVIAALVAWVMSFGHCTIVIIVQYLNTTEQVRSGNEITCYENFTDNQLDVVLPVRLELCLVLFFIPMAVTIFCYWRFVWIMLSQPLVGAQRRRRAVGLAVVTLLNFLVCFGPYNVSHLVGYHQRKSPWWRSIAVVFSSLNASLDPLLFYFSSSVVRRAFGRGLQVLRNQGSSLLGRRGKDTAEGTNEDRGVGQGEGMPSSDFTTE

alpha 1D = biological target: T16, alpha 1D (Homo sapiens, UniProt P25100); assay: cell-based; set-up: Eurofins Cerep functional GPCR screen, antagonist mode, inhibition of control agonist response; conditions: read-out: % Inhibition of Control Agonist Response, Mean
T16 construct: gene ADRA1D
T16 sequence (P25100 whole entry): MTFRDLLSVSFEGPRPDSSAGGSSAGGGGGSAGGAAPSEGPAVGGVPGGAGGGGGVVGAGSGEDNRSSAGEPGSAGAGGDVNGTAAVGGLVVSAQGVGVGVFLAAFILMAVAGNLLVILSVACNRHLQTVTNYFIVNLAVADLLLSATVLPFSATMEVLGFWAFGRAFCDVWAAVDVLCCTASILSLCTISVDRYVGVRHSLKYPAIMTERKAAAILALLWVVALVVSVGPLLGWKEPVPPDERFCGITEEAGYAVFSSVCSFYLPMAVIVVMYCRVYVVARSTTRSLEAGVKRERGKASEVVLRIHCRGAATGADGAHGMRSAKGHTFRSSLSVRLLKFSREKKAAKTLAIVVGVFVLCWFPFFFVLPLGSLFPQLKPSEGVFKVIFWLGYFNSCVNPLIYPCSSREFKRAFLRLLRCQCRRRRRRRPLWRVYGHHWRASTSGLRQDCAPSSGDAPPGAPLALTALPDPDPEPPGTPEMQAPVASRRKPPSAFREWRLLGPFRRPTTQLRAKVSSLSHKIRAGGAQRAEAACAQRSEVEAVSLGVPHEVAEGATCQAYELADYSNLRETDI

AT1 = biological target: T17, AT1 (Homo sapiens, UniProt P30556); assay: cell-based; set-up: Eurofins Cerep functional GPCR screen, antagonist mode, inhibition of control agonist response; conditions: read-out: % Inhibition of Control Agonist Response, Mean
T17 construct: gene AGTR1
T17 sequence (P30556 whole entry): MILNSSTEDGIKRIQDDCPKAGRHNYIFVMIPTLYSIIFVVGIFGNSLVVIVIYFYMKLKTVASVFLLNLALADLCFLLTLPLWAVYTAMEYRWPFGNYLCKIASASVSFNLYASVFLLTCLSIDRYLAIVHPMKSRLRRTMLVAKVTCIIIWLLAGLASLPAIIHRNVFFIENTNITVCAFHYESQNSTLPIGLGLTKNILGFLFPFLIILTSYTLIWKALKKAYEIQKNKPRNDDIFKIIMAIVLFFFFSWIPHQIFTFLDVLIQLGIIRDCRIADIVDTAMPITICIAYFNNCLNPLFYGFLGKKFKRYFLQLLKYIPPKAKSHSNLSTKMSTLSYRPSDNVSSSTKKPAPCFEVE

CCR7 = CCR7 (Homo sapiens, UniProt P32248); assay: cell-based; set-up: Eurofins Cerep functional GPCR screen, antagonist mode, inhibition of control agonist response; conditions: read-out: % Inhibition of Control Agonist Response, Mean
A1 = biological target: T18, A1 (Homo sapiens, UniProt P30542); assay: cell-based; set-up: Eurofins Cerep functional GPCR screen, antagonist mode, inhibition of control agonist response; conditions: read-out: % Inhibition of Control Agonist Response, Mean
T18 construct: gene ADORA1

PFCDPK1(P.falciparum) = biological target: T19, PFCDPK1(P.falciparum) (Plasmodium falciparum, UniProt P62344); assay: biochemical; set-up: KINOMEscan competition binding panel, per cent of control; conditions: read-out: %Ctrl @ 2800nM
T19 construct: gene CDPK1

PKNB(M.tuberculosis) = PKNB(M.tuberculosis) (Mycobacterium tuberculosis, UniProt P9WI81); assay: biochemical; set-up: KINOMEscan competition binding panel, per cent of control; conditions: read-out: %Ctrl @ 2800nM

Sequence of FPR1 (P21462 whole entry): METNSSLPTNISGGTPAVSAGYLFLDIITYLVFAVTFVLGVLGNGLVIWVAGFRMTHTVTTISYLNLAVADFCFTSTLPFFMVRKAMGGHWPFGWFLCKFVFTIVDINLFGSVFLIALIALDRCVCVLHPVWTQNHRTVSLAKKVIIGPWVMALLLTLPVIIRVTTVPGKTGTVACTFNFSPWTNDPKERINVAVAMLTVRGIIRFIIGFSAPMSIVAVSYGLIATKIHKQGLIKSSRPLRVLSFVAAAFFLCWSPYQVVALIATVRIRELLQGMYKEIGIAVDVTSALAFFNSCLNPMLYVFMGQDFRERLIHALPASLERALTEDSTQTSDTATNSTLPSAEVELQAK

## [O-][S@@+](Cc1cncs1)C(c1ccccc1)c1ccccc1 [S-CE-123, (S)-5-((Benzhydrylsulfinyl)Methyl)Thiazole]
FPR1
  inhibition at 2.8 µM: 1.6%
GIP
  inhibition at 2.8 µM: -6.6%
OXGR1 GPR99
  inhibition at 2.8 µM: -10.2%
D5
  inhibition at 2.8 µM: -10.8%
BB2
  inhibition at 2.8 µM: -23.2%
CCK2 (CCKB)
  inhibition at 2.8 µM: -6.9%
C3aR
  inhibition at 2.8 µM: 11.4%
GAL2
  inhibition at 2.8 µM: -4.8%
GABAB1b beta
  inhibition at 2.8 µM: -10.6%
α1B
  inhibition at 2.8 µM: -15.1%
CXCR3
  inhibition at 2.8 µM: -7.8%
CCR10
  inhibition at 2.8 µM: -6.9%
CCR2
  inhibition at 2.8 µM: 2%
APJ (apelin)
  inhibition at 2.8 µM: 6.2%
ETB
  inhibition at 2.8 µM: 1.5%
D1
  inhibition at 2.8 µM: -5.6%
TGR5
  inhibition at 2.8 µM: -0.3%
CRF1
  inhibition at 2.8 µM: -16.9%
H4
  inhibition at 2.8 µM: 3.4%
FFA2
  inhibition at 2.8 µM: 2.9%
Alpha 1D
  inhibition at 2.8 µM: -2.4%
AT1
  inhibition at 2.8 µM: 3%
CCR7
  inhibition at 2.8 µM: 2.8%
A1
  inhibition at 2.8 µM: 10.6%
PFCDPK1(P.falciparum)
  remaining binding at 2.8 µM: 70%
PKNB(M.tuberculosis)
  remaining binding at 2.8 µM: 96%
